We go through one molecule from patent US4948908A, “Organo phosphorus compounds and pesticidal compositions” (priority 1986, dated 1990).

This series in a line: solubility of the quarternary ammonium salt in solvents. Type of series: physicochemical. Here is the method: Preparation of Phenyl bis[4-NNN-trimethyl-ammonium-iodide-phenylamido]Phosphate, also designated phosphoric-acid-phenyl-ester-bis[4-NNN-trimethyl-ammonium-iodide-phenyl-amide] [drawing 25] The diamine V (Example 1) is dissolved in a mixture of 4:1 acetone:0.5MNaHCO3, and reacted overnight with excess Mel, methyliodide, at room temperature. The reaction mixture is then evaporated, dissolved in water and washed with ethyl acetate to remove impurities. The aqueous phase is then evaporated to dryness and the residue is washed several times with acetone to remove Sodiumiodide obtained as a by-product. The compound obtained is highly hygroscopic. The quarternary ammonium salt is very soluble in water but not in ethanol or acetone. It gives a negative reaction with TNBS.

Take `C[N+](C)(C)c1ccc(NP(=O)(Nc2ccc([N+](C)(C)C)cc2)Oc2ccccc2)cc1` [Example 3, Phenyl bis[4-NNN-trimethyl-ammonium-iodide-phenylamido]Phosphate]: the “solubility in ethanol or acetone” value (ethanol or acetone) is listed as “not”. In addition, the solubility in water entry (water) is reported as “very soluble”.
